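Cells were grown in 96-well plates and exposed to each compound for 48 hours at five concentrations; endpoints were interpolated linearly between bracketing concentrations, or set to the highest concentration if not reached. GI50 = concentration required for 50% inhibition of growth.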 The source made the active and inactive calls. No stated cut-off is given here; in the data, active = GI50 up to about 1.1 µM and inactive = higher. Where a SMILES comes first, the peptide text is derived from it. The star is where a group is joined. Cbz = O=C(OCc1ccccc1)*
Experiments:
Assay in all cases: inhibition of tumour cell growth, NCI panel, 48 h
SF-295 = tested on: SF-295
UO-31 = tested on: UO-31
RXF 393 = tested on: RXF 393
NCI-H460 = tested on: NCI-H460
KM12 = tested on: KM12
NCI-H522 = tested on: NCI-H522
COLO 205 = tested on: COLO 205
HCT-15 = tested on: HCT-15
OVCAR-3 = tested on: OVCAR-3
OVCAR-8 = tested on: OVCAR-8
UACC-257 = tested on: UACC-257
PC-3 = tested on: PC-3
OVCAR-5 = tested on: OVCAR-5
NCI-H226 = tested on: NCI-H226
SNB-19 = tested on: SNB-19
BT-549 = tested on: BT-549
SK-MEL-2 = tested on: SK-MEL-2
CAKI-1 = tested on: CAKI-1
MOLT-4 = tested on: MOLT-4
HOP-92 = tested on: HOP-92

| Compound | GI50 (SF-295) | GI50 (UO-31) | GI50 (RXF 393) | GI50 (NCI-H460) | GI50 (KM12) | GI50 (NCI-H522) | GI50 (COLO 205) | GI50 (HCT-15) [µM] | GI50 (OVCAR-3) | GI50 (OVCAR-8) | GI50 (UACC-257) | GI50 (PC-3) | GI50 (OVCAR-5) | GI50 (NCI-H226) | GI50 (SNB-19) | GI50 (BT-549) | GI50 (SK-MEL-2) | GI50 (CAKI-1) | GI50 (MOLT-4) | GI50 (HOP-92) |
| --- | --- | --- | --- | --- | --- | --- | --- | --- | --- | --- | --- | --- | --- | --- | --- | --- | --- | --- | --- | --- |
| Fc1ccc(/C=C2\COCC3=C2NC(=S)NC3c2ccc(F)cc2)cc1 (stereo not given) | 18.7 µM (inactive) | 17.7 µM (inactive) | 16.6 µM (inactive) | 19.8 µM (inactive) | 24.4 µM (inactive) | 16.4 µM (inactive) | 20.2 µM (inactive) | 15.7 | 17.8 µM (inactive) | 15.2 µM (inactive) | 18.7 µM (inactive) | 17.3 µM (inactive) | 21.1 µM (inactive) | 21.1 µM (inactive) | 23.6 µM (inactive) | 19 µM (inactive) | 15 µM (inactive) | 31.1 µM (inactive) | 20 µM (inactive) | 18.7 µM (inactive) |
| CCOC(=O)CCC(NC(=O)C(Cc1ccccc1)NC(=O)OCc1ccccc1)C(=O)OCC (stereo not drawn) (Cbz-Phe-Glu(OEt)-OEt; configuration not given here) | 19.8 µM (inactive) | 17.4 µM (inactive) | 17.9 µM (inactive) | 20.5 µM (inactive) | 17 µM (inactive) | 15.7 µM (inactive) | 19.4 µM (inactive) | 20.1 | 15.3 µM (inactive) | 19.5 µM (inactive) | 16.9 µM (inactive) | 18.2 µM (inactive) | 16.7 µM (inactive) | 16.6 µM (inactive) | 19.7 µM (inactive) | > 100 µM (inactive) | 22.3 µM (inactive) | 16.7 µM (inactive) | 30.2 µM (inactive) | 18.5 µM (inactive) |

Source: ChEMBL document CHEMBL1201862, “PubChem BioAssay data set” (2004)
